Assay results taken from PMC166128 (BMC Infectious Diseases, 2003).
Like-named read-outs stand apart in the source and are kept apart here.

Assays:
[1] = test system: VV, VSV, HSV-1, HSV-2, Coxsackie virus B4 and poliovirus-1; conditions: cited from earlier work
vaccinia virus WR strain [2] = type: cell-based; conditions: 16 h
[3] = test system: vaccinia virus IHD-J (EEV); type: cell-based
CV-1 cells = assay: Cytostatic activity; conditions: CV-1 cells seeded at 3.5 × 10^3 cells/well; 24 h incubation; cells counted
HeLa S3 cells = assay: Cell proliferation assay, 3H-thymidine uptake; conditions: 2 days + 16 h, single experiment
[4] = test system: vaccinia virus Western Reserve (WR) strain; type: cell-based
vaccinia virus = type: cell-based
vaccinia virus WR strain [5] = type: cell-based
camelpox = conditions: read-out: EC50 (camelpox); cited from earlier work
vaccinia = conditions: read-out: EC50 (vaccinia); cited from earlier work
monkeypox = conditions: read-out: EC50 (monkeypox); cited from earlier work
cowpox = conditions: read-out: EC50 (cowpox); cited from earlier work
[6] = test system: vaccinia virus International Health Department-J (IHD-J) strain; type: cell-based

| Molecule | % inhibition (vaccinia virus WR strain [2]; 25 µg/mL) [%] | titer (vaccinia virus WR strain [2]; 25 µg/mL) | % inhibition (vaccinia virus WR strain [2]; 50 µg/mL) [%] | titer (vaccinia virus WR strain [2]; 50 µg/mL) | EC50 IHD-J (EEV) CV-1 [3] [µg/mL] | CC50 Cytostatic activity (CV-1 cells) [µg/mL] | CC50 Cell proliferation (HeLa S3 cells) [µg/mL] | % inhibition (vaccinia virus; 25 µg/mL) [%] | titer (vaccinia virus; 25 µg/mL) | % inhibition (vaccinia virus; 50 µg/mL) [%] | titer (vaccinia virus; 50 µg/mL) | % inhibition (vaccinia virus WR strain [5]; 25 µg/mL) [%] | titer (vaccinia virus WR strain [5]; 25 µg/mL) | % inhibition (vaccinia virus WR strain [5]; 50 µg/mL) [%] | titer (vaccinia virus WR strain [5]; 50 µg/mL) | other results |
| --- | --- | --- | --- | --- | --- | --- | --- | --- | --- | --- | --- | --- | --- | --- | --- | --- |
| O=C(O)c1ccc(-c2c3nc(c(-c4ccc(C(=O)O)cc4)c4ccc([nH]4)c(-c4ccc(C(=O)O)cc4)c4nc(c(-c5ccc(C(=O)O)cc5)c5ccc2[nH]5)C=C4)C=C3)cc1 [TPPC, meso-tetra(4-carboxyphenyl)porphyrin] |  |  |  |  |  |  |  |  |  |  |  |  |  |  |  | EC50s for VV, VSV, HSV-1, HSV-2, Coxsackie virus B4 and poliovirus-1 [1]: ≥ 20 µg/mL |
| C=CC1=C(C)c2cc3[n-]c(cc4nc(cc5[n-]c(cc1n2)c(C)c5C=C)C(C)=C4CCC(=O)O)c(CCC(=O)O)c3C.[Zn+2] [ZnPPIX, zinc protoporphyrin] | 65 ± 0.3 | 7.2 × 10^5 pfu/mL | 70 ± 4 | 6.4 × 10^5 pfu/mL | 38 ± 7.8 | 370 | 25 | 92 ± 1 | 2.1 × 10^4 pfu/mL | 99 ± 7 | 3.2 × 10^3 pfu/mL | 98 | 2.5 × 10^5 pfu/mL | 99 | 1.0 × 10^5 pfu/mL | EC50 WR CV-1 [4]: 15 ± 12 µg/mL |
| Nc1ccn(C[C@@H](CO)OCP(=O)(O)O)c(=O)n1 [cidofovir] |  |  |  |  |  |  |  |  |  |  |  |  |  |  |  | EC50 (camelpox): 2.3 µM; EC50 (vaccinia): 46.2 µM; EC50 (monkeypox): 27 µM; EC50 (cowpox): 58 µM |
| Fe meso-tetrakis(3,4-disulfonatomesityl)porphyrin [FeTMPS] |  |  |  |  |  |  |  |  |  |  |  |  |  |  |  | EC50s for VV, VSV, HSV-1, HSV-2, Coxsackie virus B4 and poliovirus-1 [1]: ≥ 20 µg/mL |
| copper hematoporphyrin [CuHPIX] | 33 ± 9 | 1.3 × 10^6 pfu/mL | 71 ± 4 | 6.3 × 10^5 pfu/mL | 1.1 ± 0.4 |  | 36 | 80 ± 2 | 5.0 × 10^4 pfu/mL | 91 ± 2 | 2.3 × 10^4 pfu/mL | 93 | 1.1 × 10^6 pfu/mL | 97 | 4.5 × 10^5 pfu/mL | EC50 IHD-J (EEV) BSC-40 [3]: 0.32 ± 0.13 µg/mL; EC50 IHD-J CV-1 [6]: 1.5 ± 0.4 µg/mL; EC50 WR BSC-40 [4]: 0.03 ± 0.01 µg/mL; EC50 WR CV-1 [4]: 7.8 ± 0.9 µg/mL |
| sulfonated 5,10,15,20-tetra-naphthalen-1-yl-porphyrin [TNapPS] | 73 ± 16 | 3.5 × 10^5 pfu/mL | 92 ± 1 | 1.0 × 10^5 pfu/mL | 1.0 ± 0.1 | 400 |  | 87 ± 5 | 3.3 × 10^4 pfu/mL | 95 ± 2 | 1.3 × 10^4 pfu/mL | 98 | 3.5 × 10^5 pfu/mL | 98 | 2.6 × 10^5 pfu/mL |  |
| sulfonated copper phthalocyanine [CuPcS(3444)] | 49 ± 21 | 9.3 × 10^5 pfu/mL | 59 ± 2 | 8.3 × 10^5 pfu/mL | 8.2 ± 1.3 | > 1000 | > 500 | 92 ± 3 | 2.1 × 10^4 pfu/mL | 90 ± 2 | 2.4 × 10^4 pfu/mL | 60 | 6.3 × 10^6 pfu/mL | 74 | 4.1 × 10^6 pfu/mL | EC50 IHD-J (EEV) BSC-40 [3]: 50 ± 7 µg/mL; EC50 IHD-J CV-1 [6]: 14 ± 5.3 µg/mL |
